Test results as given in PubChem BioAssay AID2060893 (Molecular Pharmacology Branch, DTP, NCI, 2025).

Tested on: K86415-001-R-J1-PDC complex spheroids, viability
Experiment: Anticancer human tumor K86415-001-R-J1-PDC patient-derived lung adenocarcinoma cell line growth inhibition [RAS]
Settings: for IC50: curve of first compound; for viability, T/C: stronger effect = lower value
Source text: RAS pathway inhibitors in Combinations in Complex Spheroids
A high-throughput screen of multi-cell type tumor spheroids was designed to identify active combinations of RAS pathway inhibitors and targeted small molecules. Complex spheroids include a stromal component modeled by human endothelial cells (HUVEC) and fibroblasts modeled by human mesenchymal stem cells (MSCs). The concentration ranges selected for each drug and investigational agent were based upon clinically achievable concentrations if the clinical Cmax of the agent was known.
Compounds. The drugs and investigational agents: abemaciclib (NSC768073), cobimetinib (NSC768068), divarasib (GDC6063, NSC841802), docetaxel (NSC628503), GDC-1971 (RLY-1971, NSC841576), gemcitabine (NSC613327), inavolisib (NSC800729), ipatasertib (NSC767898), KB-0742 (NSC834161), MRTX-1133 (NSC836407), osimertinib (NSC779217), RMC-4630 (NSC839698), RMC-6236 (NSC851965), RMC-6291 (NSC852671), Ro-3306 (NSC812927), sapanisertib (NSC764658), SN-38 (NSC673596), staurosporine (NSC755774), SY5609 (NSC837396), and tovorafenib (DAY101, NSC766906), were obtained from the National Cancer Institute (NCI) Developmental Therapeutics Program Chemical Repository. The FDA-approved anticancer drug set is available from the NCI Developmental Therapeutics Program. […] The stock solutions were prepared in dimethyl sulfoxide (DMSO, Sigma-Aldrich, St. Louis, MO, cat. D2650) at 800-fold the tested concentration and stored at -70 degrees C prior to their use. All drugs and investigational agents were tested over a range starting from a high concentration at or near the clinical Cmax and decreasing in half-log increments. If the clinical Cmax for an agent had not been determined, the highest concentration tested was 10 microM.
Cell Culture. All cells were maintained in an incubator at 37 degrees C and 5% CO2 with 95% humidity. The PDC lines were cultured according to standard operating procedures established by the NCI PDMR. All PDCs were thawed and cultured in Matrigel-coated flasks prepared with a working solution of 1X Ham's F-12 nutrient mix, without supplementation (Invitrogen, Waltham, MA, cat. 11765054), 100 U/mL penicillin-streptomycin (Invitrogen, cat. 15140122), and 2.5% Matrigel (Corning Inc., Corning, NY, cat. 354248) for the first three passages. The 362531-283-R-J2-PDC and 782815-120-R-J1-PDC lines were cultured in 6C/Colon 1B media, which includes advanced DMEM/F-12 (Thermo Fisher Scientific, cat. 12634028), 10 mM HEPES (Thermo Fisher Scientific, cat. 15630080), 1X GlutaMAX supplement (Thermo Fisher Scientific, cat. 35050061), 0.1 mg/mL primocin (InvivoGen, San Diego, CA, cat. ant-pm-2), 10% defined fetal bovine serum, heat inactivated (HyClone Laboratories Inc., Logan, UT, cat. SH30070.03HI), 50% L-WRN conditioned media (ATCC, cat. CRL-3276), 1.25 mM N-Acetyl-L-cysteine (Sigma-Aldrich, cat. A9165), 10 mM nicotinamide (Sigma-Aldrich, cat. N0636), 1X B-27 supplement (Thermo Fisher Scientific, cat. 17504044), 1X N-2 supplement (Thermo Fisher Scientific, cat. 17502048), 50 ng/mL human EGF (Thermo Fisher Scientific, cat. PHG0311), and 10 microM Y-27632 dihydrochloride (Tocris Bioscience, cat. 1254). The K12877-001-R-J1-PDC line was cultured in 6I media, which includes all 6C/Colon 1B media plus 10 ng/mL human FGF-10 (PeproTech, cat. 100-26), 1 ng/mL human FGF-2 (PeproTech, cat. 100-18B), 1 µM prostaglandin E2 (Tocris Bioscience, cat. 2296), […] hydrocortisone (Sigma-Aldrich, cat. H4001), and […] bovine insulin (Sigma-Aldrich, cat. I6634). The K86415-001-R-J1-PDC line was cultured in 6D media, which includes all 6C/Colon 1B media components minus the L-WRN conditioned media. The 485176-168-R4-J1-PDC was cultured in PANC media, which includes all 6C/Colon 1B media plus 100 ng/mL human FGF-10 (PeproTech, cat. 100-26), 500 nM SB-431542 (Selleckchem, cat. S1067), and 10 nM gastrin (Tocris Bioscience, cat. 3006). […]
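Also: spheroids exposed to agents for seven days before readout.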

C[C@@H](NC(=O)c1ncnc(N)c1Cl)c1ncc(C(=O)Nc2cc(C(F)(F)F)c(Cl)cn2)s1 + CCn1c(-c2cc(N3CCN(C)CC3)cnc2C(C)OC)c2c3cc(ccc31)-c1csc(n1)CC(NC(=O)C1CC1C)C(=O)N1CCCC(N1)C(=O)OCC(C)(C)C2
IC50 (second compound 0.000949 µM): 4280 nM
IC50 (second compound 0.003 µM): < 31.6 nM
IC50 (second compound 0.00949 µM): < 31.6 nM
IC50 (second compound 0.03 µM): < 31.6 nM
IC50 (second compound 0.0949 µM): < 31.6 nM
IC50 (second compound 0.3 µM): < 31.6 nM
viability, T/C (second compound 0.000949 µM, first compound 0.0316 µM): 58.2%
viability, T/C (second compound 0.000949 µM, first compound 0.1 µM): 62.2%
viability, T/C (second compound 0.000949 µM, first compound 0.316 µM): 53.7%
viability, T/C (second compound 0.000949 µM, first compound 1 µM): 62.2%
viability, T/C (second compound 0.000949 µM, first compound 3.16 µM): 57.1%
viability, T/C (second compound 0.000949 µM, first compound 10 µM): 29.1%
viability, T/C (second compound 0.003 µM, first compound 0.0316 µM): 34.8%
viability, T/C (second compound 0.003 µM, first compound 0.1 µM): 27.6%
viability, T/C (second compound 0.003 µM, first compound 0.316 µM): 32.1%
viability, T/C (second compound 0.003 µM, first compound 1 µM): 38.1%
viability, T/C (second compound 0.003 µM, first compound 3.16 µM): 33.4%
viability, T/C (second compound 0.003 µM, first compound 10 µM): 21.7%
viability, T/C (second compound 0.00949 µM, first compound 0.0316 µM): 12.9%
viability, T/C (second compound 0.00949 µM, first compound 0.1 µM): 11.8%
viability, T/C (second compound 0.00949 µM, first compound 0.316 µM): 11.9%
viability, T/C (second compound 0.00949 µM, first compound 1 µM): 16.6%
viability, T/C (second compound 0.00949 µM, first compound 3.16 µM): 15.4%
viability, T/C (second compound 0.00949 µM, first compound 10 µM): 11.6%
viability, T/C (second compound 0.03 µM, first compound 0.0316 µM): 6.75%
viability, T/C (second compound 0.03 µM, first compound 0.1 µM): 8.74%
viability, T/C (second compound 0.03 µM, first compound 0.316 µM): 8.31%
viability, T/C (second compound 0.03 µM, first compound 1 µM): 8.07%
viability, T/C (second compound 0.03 µM, first compound 3.16 µM): 8.51%
viability, T/C (second compound 0.03 µM, first compound 10 µM): 7.57%
viability, T/C (second compound 0.0949 µM, first compound 0.0316 µM): 5.52%
viability, T/C (second compound 0.0949 µM, first compound 0.1 µM): 4.87%
viability, T/C (second compound 0.0949 µM, first compound 0.316 µM): 4.23%
viability, T/C (second compound 0.0949 µM, first compound 1 µM): 4.04%
viability, T/C (second compound 0.0949 µM, first compound 3.16 µM): 4.24%
viability, T/C (second compound 0.0949 µM, first compound 10 µM): 4.39%
viability, T/C (second compound 0.3 µM, first compound 0.0316 µM): 3.5%
viability, T/C (second compound 0.3 µM, first compound 0.1 µM): 3.03%
viability, T/C (second compound 0.3 µM, first compound 0.316 µM): 4.17%
viability, T/C (second compound 0.3 µM, first compound 1 µM): 3.4%
viability, T/C (second compound 0.3 µM, first compound 3.16 µM): 4.53%
viability, T/C (second compound 0.3 µM, first compound 10 µM): 4.26%
